Experimental data: ChEMBL document CHEMBL3124743, “Imaging evaluation of 5HT2C agonists, [(11)C]WAY-163909 and [(11)C]vabicaserin, formed by Pictet-Spengler cyclization” (J Med Chem, 2014); call rule not given here

Legend:
[1] = Fraction unbound in Papio Anubis plasma at 2.33 mCi, iv by PET imaging; assay type: ADME, organism-based
Brain [2] = assay: Drug uptake in Sprague-Dawley rat in regions outside brain at 0.303 mCi, iv by PET imaging; assay type: ADME, organism-based; details: in vivo
Brain [3] = assay: Drug uptake in Sprague-Dawley rat assessed as retention time in brain at 0.303 mCi, iv by PET imaging; assay type: ADME, organism-based
Brain [4] = assay: Drug uptake in Papio anubis assessed as maximal uptake in brain at 2.33 mCi, iv after 20 mins of injection by PET imaging; assay type: ADME, organism-based; details: in vivo
Brain [5] = assay: Drug uptake in Papio anubis assessed as retention time in brain at 2.33 mCi, iv by PET imaging; assay type: ADME, organism-based
[6] = Octanol-water partition coefficient, log D of the compound at pH 7.4; assay type: physicochemical
Brain [7] = assay: Drug uptake in Sprague-Dawley rat assessed as retention time in brain at 0.99 mCi, iv by PET imaging; assay type: ADME, organism-based
[8] = target: T1, 5-hydroxytryptamine receptor 2C (Homo sapiens, UniProt P28335); assay: Displacement of [125I]DOI from human 5-HT2C receptor
T1 sequence (P28335 whole entry): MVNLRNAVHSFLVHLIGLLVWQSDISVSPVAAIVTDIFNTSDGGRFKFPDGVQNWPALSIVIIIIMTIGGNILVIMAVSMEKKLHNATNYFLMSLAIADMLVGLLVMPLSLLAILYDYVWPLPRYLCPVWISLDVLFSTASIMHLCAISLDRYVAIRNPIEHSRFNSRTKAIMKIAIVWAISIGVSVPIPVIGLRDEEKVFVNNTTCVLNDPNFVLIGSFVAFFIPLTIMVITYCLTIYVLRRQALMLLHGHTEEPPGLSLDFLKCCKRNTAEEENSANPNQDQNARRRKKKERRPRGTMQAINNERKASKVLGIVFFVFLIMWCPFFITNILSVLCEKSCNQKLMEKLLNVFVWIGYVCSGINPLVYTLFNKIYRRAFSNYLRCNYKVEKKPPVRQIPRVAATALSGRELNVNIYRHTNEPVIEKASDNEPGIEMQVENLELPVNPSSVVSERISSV

With `c1cc2c3c(c1)[C@H]1CCC[C@H]1N3CCN[11CH2]2` the fraction unbound [1] was 0.265, the Drug uptake (Brain [2]) was “Active” and the Retention_time (Brain [3]) was 60 min. For the same molecule, the Drug uptake (Brain [4]) was “Active”, the Retention_time (Brain [5]) was 80 min and the logD [6] was 1.53.

A Retention_time (Brain [7]) of 60 min was found for `c1cc2c3c(c1)[C@H]1CCC[C@H]1CN3CCN[11CH2]2` in this work.

A Ki [8] of 3 nM was found for `c1cc2c3c(c1)[C@H]1CCC[C@H]1CN3CCNC2` [VABICASERIN] in this work.
